Literature values in US20220280447A1, “COMPOSITIONS AND METHODS FOR IMPROVING BRAIN FUNCTION” (HEALTH VIA MODERN NUTRITION INC., priority 2021, published 2022).
Where two headings read alike, the source gives them in different places.

Columns and labels:
[1] = rats fed diet supplemented as 30% of calories
[2] = 20-month oral administration, patient with Alzheimer's disease dementia
[3] = children
[4] = Schizophrenia-like rat model
[5] = Alzheimer's disease transgenic mice
[6] = animal studies
[7] = teenagers with social anxiety disorders
[8] = animal models
[9] = in vitro studies
[10] = tested on: reactive oxygen species (ROS) production by mitochondria; details: in vitro
NF-icB activation = details: in vitro

SMILES: C[C@@H](O)CCOC(=O)C[C@@H](C)O [(R)-3-hydroxyburyl (R)-3-hydroxybutyrate]
- cognitive and physical performance [1]: improved cognitive and physical performance

SMILES: C[C@@H](O)CCOC(=O)C[C@@H](C)O [ketone monoester]
- mood, affect, self-care, cognitive and daily activity performance [2]: improved markedly

SMILES: C=C(C)[C@@H]1CCC(C)=C[C@H]1c1c(O)cc(CCCCC)cc1O [CBD, cannabidiol]
- treatment of certain seizure disorders [3]: effective
- cognitive impairment [4]: improve cognitive impairment
- cortical transcriptional changes [4]: reverse cortical transcriptional changes
- development of a social recognition deficit [5]: prevent the development of a social recognition deficit
- anti-inflammatory properties [6]: strong anti-inflammatory properties
- anxiolytic effect [7]: anxiolytic effect
- anti-anxiety and antidepressant effects [8]: anti-anxiety and antidepressant effects
- anti-inflammatory properties [9]: strong anti-inflammatory properties
- effect on adenosine A1 receptors (adenosine A1 receptors): affect adenosine A1 receptors
- reactive oxygen species (ROS) production by mitochondria [10]: inhibits
- NF-icB activation (NF-icB activation): inhibits
